Legend:
UWB1.289 cells = assay: Cell proliferation inhibitory activity in BRCA1/2-mutant or HRD-positive cells (Cell Titer-Glo); type: cell-based; conditions: UWB1289; UWB1.289 cells, 144 hours after compound treatment, Cell Titer-Glo, 1.5 nM to 10 µM; read-out: GI50 UWB1.289 BRCA1 mut
How it was run: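 GI50 from CellTiter-Glo luminescence after 144 h compound exposure at 37 °C. Cells seeded at 1,000 per well in MEBM/RPMI1640 mix 16–24 h beforehand; […] from 10 µM down to 1.5 nM final (3-fold steps).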

recombinant USP1 protein = molecular target: T1, recombinant USP1 protein (Homo sapiens, UniProt O94782, DEL125-138/DEL229-408/DEL608-737); assay: Binding affinity to recombinant USP1 protein by differential scanning fluorimetry; conditions: compound 100 µM; 0.03 mg/mL USP1 (Δ1-66, Δ125-138, Δ229-408, Δ608-737); Tm with compound minus Tm with DMSO; read-out: ΔTm (°C)
T1 sequence (O94782 with tags, fused parts or gaps DEL125-138/DEL229-408/DEL608-737): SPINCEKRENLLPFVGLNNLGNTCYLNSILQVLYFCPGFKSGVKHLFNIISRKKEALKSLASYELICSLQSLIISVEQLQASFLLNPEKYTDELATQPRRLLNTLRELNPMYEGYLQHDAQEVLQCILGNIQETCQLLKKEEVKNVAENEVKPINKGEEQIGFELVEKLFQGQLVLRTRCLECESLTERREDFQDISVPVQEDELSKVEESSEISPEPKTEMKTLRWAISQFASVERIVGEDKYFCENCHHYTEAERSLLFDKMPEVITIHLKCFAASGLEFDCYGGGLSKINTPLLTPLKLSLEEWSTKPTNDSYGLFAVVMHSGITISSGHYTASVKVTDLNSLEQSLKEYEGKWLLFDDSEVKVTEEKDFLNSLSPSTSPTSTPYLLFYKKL
How it was run: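 Thermal shift readout: ΔTm is the compound-well melting temperature less the DMSO-well value, measured by real-time PCR. Compounds tested at 100 µM final against 0.03 mg/mL truncated USP1 (Δ1-66, Δ125-138, Δ229-408, Δ608-737) in pH 8.0 Tris buffer containing 150 mM NaCl, 2% glycerol, 1 mM DTT.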

| SMILES | ΔTm at 100 µM (recombinant USP1 protein) [°C] | GI50 (UWB1.289 cells) [nM] |
| --- | --- | --- |
| COc1ncnc(C2CC2)c1-c1ncc2cc(C(=O)NC(C)(C)CO)n(Cc3ccc(-c4nc(C(F)(F)F)cn4C)cc3)c2n1 [Example 197, 2-(4-cyclopropyl-6-methoxypyrimidin-5-yl)-N-(1-hydroxy-2-methylpropan-2-yl)-7-(4-(1-methyl-4-(trifluoromethyl)-1H-imidazol-2-yl)benzyl)-7H-pyrrolo[2,3-d]pyrimidine-6-carboxamide] | > 5 | < 100 |
| CNC(=O)c1cc2cnc(-c3c(OC)ncnc3C3CC3)nc2n1Cc1ccc(-n2nc(C(F)(F)F)cc2-c2ccco2)cc1 [Example 198, 2-(4-cyclopropyl-6-methoxypyrimidin-5-yl)-7-(4-(5-(furan-2-yl)-3-(trifluoromethyl)-1H-pyrazol-1-yl)benzyl)-N-methyl-7H-pyrrolo[2,3-d]pyrimidine-6-carboxamide] | > 5 | 100 to 500 |
| CNC1CN(C(=O)c2cc3cnc(-c4c(OC)ncnc4C4CC4)nc3n2Cc2ccc(-c3nc(C(F)(F)F)cn3C)cc2)C1 [Example 203, (2-(4-cyclopropyl-6-methoxypyrimid in-5-yl)-7-(4-(1-methyl-4-(trifluoromethyl)-1H-imidazol-2-yl)benzyl)-7H-pyrrolo[2,3-d]pyrimidin-6-yl) (3-(methylamino)azetidin-1-yl)methanone] | > 5 | < 100 |
| COc1ncnc(C2CC2)c1-c1ncc2cc(C(=O)N[C@@H]3CCN(C)CC3(F)F)n(Cc3ccc(-c4nc(C(F)(F)F)cn4C)cc3)c2n1 [Example 207, (R) -2-(4-cyclopropyl-6-methoxypyrimidin-5-yl)-N-(3,3-difluoro-1-methylpiperidin-4-yl)-7-(4-(1-methyl-4-(trifluoromethyl)-1H-imidazol-2-yl)benzyl)-7H-pyrrolo[2,3-d]pyrimidine-6-carboxamide] | > 5 | < 100 |
| CNC(=O)c1cc2cnc(-c3c(OC)ncnc3C3CC3)nc2n1Cc1ccc(-c2cc(C)ccn2)cc1 [Example 209, 2-(4-cyclopropyl-6-methoxypyrimidin-5-yl)-N-methyl-7-(4-(4-methylpyridin-2-yl)benzyl)-7H-pyrrolo[2,3-d]pyrimidine-6-carboxamide] | > 5 | < 100 |
| COc1ncnc(C2CC2)c1-c1ncc2cc(C(=O)N(C)CSC)n(Cc3ccc(-c4nc(C(F)(F)F)cn4C)cc3)c2n1 [Example 210, 2-(4-cyclopropyl-6-methoxypyrimidin-5-yl)-N-methyl-7-(4-(1-methyl-4-(trifluoromethyl)-1H-imidazol-2-yl)benzyl)-N-((methylthio)methyl)-7H-pyrrolo[2,3-d]pyrimidine-6-carboxamide] | > 5 | < 100 |
| COc1ncnc(C2CC2)c1-c1ncc2cc(C(=O)N[C@H]3CN(C4COC4)C[C@H]3F)n(Cc3ccc(-c4nc(C(F)(F)F)cn4C)cc3)c2n1 [Example 212, 2-(4-cyclopropyl-6-methoxypyrimidin-5-yl)-N-((3S,4R)-4-fluoro-1-(oxetan-3-yl)pyrrolidin-3-yl)-7-(4-(1-methyl-4-(trifluoromethyl)-1H-imidazol-2-yl)benzyl)-7H-pyrrolo [2,3-d]pyrimidine-6-carboxamide] | > 5 | < 100 |
| COc1ncnc(C2CC2)c1-c1ncc2cc(C(=O)N[C@H]3CN(C4CC4)C[C@H]3F)n(Cc3ccc(-c4nc(C(F)(F)F)cn4C)cc3)c2n1 [Example 215, N-((3S,4R)-1-cyclopropyl-4-fluoropyrrolidin-3-yl)-2-(4-cyclopropyl-6-methoxypyrimidin-5-yl)-7-(4-(1-methyl-4-(trifluoromethyl)-1H-imidazol-2-yl)benzyl)-7H-pyrrolo[2,3-d]pyrimidine-6-carboxamide] | > 5 | < 100 |

More lines, main results first:

| ΔTm at 100 µM (recombinant USP1 protein) [°C] | SMILES | GI50 (UWB1.289 cells) [nM] |
| --- | --- | --- |
| > 5 | COc1ncnc(C2CC2)c1-c1ncc2cc(C(=O)N[C@@H]3CCN(C)[C@H](C)C3)n(Cc3ccc(-c4nc(C(F)(F)F)cn4C)cc3)c2n1 [Example 199, 2-(4-cyclopropyl-6-methoxypyrimidin-5-yl)-N-((2R,4R)-1,2-dimethylpiperidin-4-yl)-7-(4-(1-methyl-4-(trifluoromethyl)-1H-imidazol-2-yl)benzyl)-7H-pyrrolo[2,3-d]pyrimidine-6-carboxamide] | < 100 |
| > 5 | CNC(=O)c1cc2cnc(-c3c(OC)ncnc3C3CC3)nc2n1Cc1ccc(-c2nc(C(F)(F)F)c3n2CCCC3)cc1 [Example 200, 2-(4-cyclopropyl-6-methoxypyrimidin-5-yl)-N-methyl-7-(4-(1-(trifluoromethyl) -5,6,7,8-tetrahydroimidazo[1,5-a]pyridin-3-yl)benzyl)-7H-pyrrolo[2,3-d]pyrimidine-6-carboxamide] | < 100 |
| > 5 | COc1ncnc(C2CC2)c1-c1ncc2cc(C(=O)N[C@H]3CCN(C)[C@H](C)C3)n(Cc3ccc(-c4nc(C(F)(F)F)cn4C)cc3)c2n1 [Example 201, 2-(4-cyclopropyl-6-methoxypyrimidin-5-yl)-N-((2R,4S)-1,2-dimethylpiperidin-4-yl)-7-(4-(1-methyl-4-(trifluoromethyl)-1H-imidazol-2-yl)benzyl)-7H-pyrrolo[2,3-d]pyrimidine-6-carboxamide] | < 100 |
| > 5 | COc1ncnc(C2CC2)c1-c1ncc2cc(C(=O)N[C@H]3CCN(C)CC3(F)F)n(Cc3ccc(-c4nc(C(F)(F)F)cn4C)cc3)c2n1 [Example 202, (S)-2-(4-cyclopropyl-6-methoxypyrimidin-5-yl)-N-(3,3-difluoro-1-methylpiperidin-4-yl)-7-(4-(1-methyl-4-(trifluoromethyl)-1H-imidazol-2-yl)benzyl)-7H-pyrrolo[2,3-d]pyrimidine-6-carboxamide] | < 100 |
| > 5 | COc1ncnc(C2CC2)c1-c1ncc2cc(C(=O)N(C)C)n(Cc3ccc(-c4nc(C(F)(F)F)cn4C)cc3)c2n1 [Example 204, 2-(4-cyclopropyl-6-methoxypyrimidin-5-yl)-N,N-dimethyl-7-(4-(1-methyl-4-(trifluoromethyl)-1H-imidazol-2-yl)benzyl)-7H-pyrrolo[2,3-d]pyrimidine-6-carboxamide] | < 100 |
| > 5 | COc1ncnc(C2CC2)c1-c1ncc2cc(C(=O)NCC(C)(C)O)n(Cc3ccc(-c4nc(C(F)(F)F)cn4C)cc3)c2n1 [Example 205, 2-(4-cyclopropyl-6-methoxypyrimidin-5-yl)-N-(2-hydroxy-2-methylpropyl)-7-(4-(1-methyl-4-(trifluoromethyl)-1H-imidazol-2-yl)benzyl)-7H-pyrrolo[2,3-d]pyrimidine-6-carboxamide] | < 100 |
| > 5 | CNC(=O)c1cc2cnc(-c3c(OC)ncnc3C3CC3)nc2n1Cc1ccc(-c2nc(C(F)(F)F)c3ccccn23)cc1 [Example 208, 2-(4-cyclopropyl-6-methoxypyrimidin-5-yl)-N-methyl-7-(4-(1-(trifluoromethyl)imidazol[1,5-a]pyridin-3-yl)benzyl)-7H-pyrrolo[2,3-d]pyrimidine-6-carboxamide] | < 100 |
| > 5 | COc1ncnc(C2CC2)c1-c1ncc2cc(C(=O)N[C@H]3CN(C(C)C)C[C@H]3F)n(Cc3ccc(-c4nc(C(F)(F)F)cn4C)cc3)c2n1 [Example 211, 2-(4-cyclopropyl-6-methoxypyrimidin-5-yl)-N-((3S,4R)-4-fluoro-1-isopropylpyrrolidin-3-yl)-7-(4-(1-methyl-4-(trifluoromethyl)-1H-imidazol-2-yl)benzyl)-7H-pyrrolo[2,3-d]pyrimidine-6-carboxamide] | < 100 |
| > 5 | CNC(=O)c1cc2cnc(-c3c(OC)ncnc3C3CC3)nc2n1Cc1ccc(-c2nc(C(F)(F)F)c(OC)n2C)cc1 [Example 214, 2-(4-cyclopropyl-6-methoxypyrimidin-5-yl)-7-(4-(5-methoxy-1-methyl-4-(trifluoromethyl)-1H-imidazol-2-yl)benzyl)-N-methyl-7H-pyrrolo[2,3-d]pyrimidine-6-carboxamide] | < 100 |
| > 5 | COc1ncnc(C2CC2)c1-c1ncc2cc(C(=O)N[C@@H]3CCN(C4COC4)C[C@@H]3F)n(Cc3ccc(-c4nc(C(F)(F)F)cn4C)cc3)c2n1 [Example 216, 2-(4-cyclopropyl-6-methoxypyrimidin-5-yl)-N-((3S,4R)-3-fluoro-1-(oxetan-3-yl)piperidin-4-yl)-7-(4-(1-methyl-4-(trifluoromethyl)-1H-imidazol-2-yl)benzyl) -7H-pyrrolo[2,3-d]pyrimidine-6-carboxamide] | 100 to 500 |
| > 5 | COc1ncnc(C2CC2)c1-c1ncc2cc(C(=O)N[C@@H]3CN(C)C[C@@H]3F)n(Cc3ccc(-c4nc(C(F)(F)F)cn4C)cc3)c2n1 [Example 217, 2-(4-cyclopropyl-6-methoxypyrimidin-5-yl)-N-((3R,4S)-4-fluoro-1-methylpyrrolidin-3-yl)-7-(4-(1-methyl-4-(trifluoromethyl)-1H-imidazol-2-yl)benzyl) -7H-pyrrolo[2,3-d]pyrimidine-6-carboxamide] | < 100 |

— patent EP4806898A1, “HETEROARYL DERIVATIVE COMPOUND AND USE THEREOF” (Voronoi Inc., priority 2023, dated 2025)
